Patent publication US7888368B2, “Treatment of drug-resistant tumors” (Sigma-Tau Industrie Farmaceutiche Riunite S.p.A., priority 2005, dated 2011)
Numbering of substitutions follows the chain as printed.

Tests used:
[1] = target: T1, human DNA topoisomerase I wild type (YCpGAL1 hTOP1) (Homo sapiens, UniProt P11387); test: In vivo spot test, yeast transformed with human DNA topoisomerase I wild type; conditions: Saccharomyces cerevisiae EKY2, 2% galactose, drug 45 μM, 48-72 h at 30° C.
T1 sequence (P11387 1-765): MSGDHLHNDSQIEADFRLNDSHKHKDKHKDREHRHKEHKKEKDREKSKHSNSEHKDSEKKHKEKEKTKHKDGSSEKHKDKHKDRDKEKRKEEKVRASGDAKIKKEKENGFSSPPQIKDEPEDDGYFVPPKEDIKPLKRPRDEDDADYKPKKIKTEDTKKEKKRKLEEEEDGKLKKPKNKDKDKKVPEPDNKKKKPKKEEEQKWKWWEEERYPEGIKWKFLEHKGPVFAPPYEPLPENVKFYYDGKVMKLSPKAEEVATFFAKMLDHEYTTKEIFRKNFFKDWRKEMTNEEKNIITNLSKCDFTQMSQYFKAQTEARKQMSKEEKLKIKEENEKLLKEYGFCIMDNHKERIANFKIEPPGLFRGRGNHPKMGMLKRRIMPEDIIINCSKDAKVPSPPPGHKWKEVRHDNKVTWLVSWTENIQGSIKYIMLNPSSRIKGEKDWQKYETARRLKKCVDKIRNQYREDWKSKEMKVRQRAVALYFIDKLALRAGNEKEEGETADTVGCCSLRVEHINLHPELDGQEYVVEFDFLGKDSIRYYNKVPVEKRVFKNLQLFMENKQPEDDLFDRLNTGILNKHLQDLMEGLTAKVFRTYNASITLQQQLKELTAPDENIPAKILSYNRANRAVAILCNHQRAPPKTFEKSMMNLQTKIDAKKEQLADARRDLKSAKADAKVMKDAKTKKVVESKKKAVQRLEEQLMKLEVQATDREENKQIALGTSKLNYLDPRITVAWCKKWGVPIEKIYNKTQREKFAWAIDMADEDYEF
Description: Before to transform the yeast cells with DNA (lithium acetate method), yeast was grown on solid medium. It was streaked on plates of 90 mm containing sterile solid medium (YPDA) (10 g yeast, 20 g peptone, 20 g dextrose, 0.7 g adenine, 20 g glucose, 20 g agar for liter). Colonies were grown after 48 h at 30° C. One day before the transformation, a single yeast colony of the strain to be transformed was inoculated in 5 ml of steril liquid YPDA (the medium above mentioned without agar). The colony was grown to saturation overnight under stirring at 30° C. The day after, 5 ml of saturated culture was diluted in 100 ml of YPDA liquid medium and grown at 30° C. to reach an optical density of 1.0 at 600 nm. Cells were centrifuged for 5 min at 4000×g at room temperature and the pellet was resuspended in 25 ml of a solution (T/E) containing 10 mM Tris-EDTA pH7.5, 1 mM EDTA and 100 mM lithium acetate. The yeast suspension was centrifuged for 5 min at 4000×g at room temperature. The pellet was resuspended in a fresh solution above described (about 500 μl) to obtain 2×10^9 cells/ml. To have the transformation, 200 μg of DNA carrier were mixed with 1 μg transforming DNA and 200 μl yeast cells in an eppendorf. Subsequently, 1.2 ml of a solution TE/lithium acetate containing 40% PEG were added and the yeast suspension was kept under stirring for 30 min at 30° C. A heat shock was performed by keeping the yeast suspension at 42° C. for 15 min. Subsequently it was centrifuged 5 sec at room temperature. Yeast was resuspended in TE buffer and spread up onto CM (complete minimal) dropout medium on plates. CM was previously prepared with 1.3 g of dropout powder containing different aminoacids without uracil, 1.7 g yeast nitrogen base without aminoacids and ammonium sulfate, 5 g ammonium sulfate, 20 g glucose and 20 of agar for liter). The plates were incubated at 30° C. until transformants appear.
To perform the in vivo spot test, the transformants were inoculated in 5 ml of steril liquid CM medium and grown overnight under stirring at 30° C. The day after a dilution of the yeast colonies was made to reach an optical density at 600 nm of 0.3. Starting from this first dilution, other serial dilutions (1:10, 1:100, 1:1000) were performed in plates of 96 well. 5 μl of each dilution were put on plates of 90 mm containing solid CM medium. For the control samples, 2% glucose or 2% galactose were added; for the camptothecin-derivatives treated samples, 2% galactose and the drugs at a concentration 45 μM were added. The yeast colonies were incubated at 30° C. for 48-72 h and analyzed macroscopically.

[2] = test system: A2780/DDP platinum-resistant ovarian carcinoma; test: Antitumor activity on A2780/DDP resistant tumor xenograft; format: in vivo, human; conditions: A2780/DDP s.c. in nude athymic mice, q4d × 3
Description: (§1) Using a q4d dosing schedule repeated for 3-5 doses, ST1968 was compared to irinotecan or other known chemotherapeutic agents against different human tumor models (Table 2), including A2780/ADR multidrug-resistant ovarian carcinoma which overexpresses PgP glycoprotein, A2780/DDP platinum-resistant ovarian carcinoma and DU145RC1 camptothecin-resistant prostate carcinoma which was previously selected by continuous exposure of the parental sensitive DU145 to 9-nitro-camptothecin (Urasaki Y et al., 2001, Cancer Res 61, 1964-9). On this selected tumor cell line, a Topoisomerase I mutation which changes the arginine 364 codon to histidine (R364H) was found. The 364H point mutation was located in the highly conserved core, a region of Topoisomerase I within the Topoisomerase I amino acid residues 361-364 critical for camptothecin resistance. Moreover, this mutation site is close to the catalytic tyrosine. The resistance of the Topoisomerase I/R364H is probably attributable to the loss of a critical H-bond between R364 and camptothecin E-ring lactone moiety.
(§2) Exponentially growing tumor cells were injected s.c. into nude athymic mice. The number of tumor cells was previously chosen by a growth curve. Mice were housed inside cages of makrolon (33.2×15×13 cm) with stainless steel cover-feed and sterilized and dust-free bedding cobs. Animals were housed under a light-dark cycle, keeping temperature and humidity constant. Parameters of the animal rooms were assessed as follows: 22±2° C. temperature, 55±10% relative humidity, about 15-20 filtered air changes/hour and 12 hour circadian cycle of artificial light (7 a.m., 7 p.m.). At request, the environmental conditions were monitored and the data are retained in Animal Housing Archives. Drinking water was supplied ad libitum. Each mouse was offered daily a complete pellet diet (GLP 4RF21, Mucedola) throughout the study. The analytical certificates of animal food and water are retained at Sigma-Tau premises. All animals were weighed before starting the experiment and were subdivided into the different dosage groups. Each cage was identified by a paper tag indicating: cage number, group, date of tumor injection, starting date of treatment, name of the test item, dose and route of administration, date of sacrifice.
(§3) Tumor growth was followed by biweekly measurements of tumor diameters with a Vernier caliper. Tumor volume (TV, mm^3) was calculated as: [length (mm)×width (mm)^2]/2, where the width and the length are the shortest and the longest diameters of each tumor, respectively.
(§4) The efficacy of the drug treatment was assessed as: a) Tumor volume inhibition (TVI %) in treated versus control mice, calculated as: 100−[(mean tumor volume of treated animals/mean tumor volume of control animals)×100]; b) LCK (log10 cell kill) calculated by the formula LCK=(T−C)/3.32×DT, where T and C are the mean times (days) required for treated (T) and control (C) tumor, respectively, to reach 1000 mm^3, and DT is the doubling time of control tumors; CR meaning no evidence of tumor lasting for at least 10 days.

[3] = test system: DU145 sensitive prostate carcinoma; test: Antitumor activity on DU145 tumor xenograft; format: in vivo, human; conditions: DU145 s.c. in nude athymic mice, 35 iv mg/kg, q4d × 4
Description: Using a q4d dosing schedule repeated for 3-5 doses, ST1968 was compared to irinotecan or other known chemotherapeutic agents against different human tumor models (Table 2), including A2780/ADR multidrug-resistant ovarian carcinoma which overexpresses PgP glycoprotein, A2780/DDP platinum-resistant ovarian carcinoma and DU145RC1 camptothecin-resistant prostate carcinoma which was previously selected by continuous exposure of the parental sensitive DU145 to 9-nitro-camptothecin (Urasaki Y et al., 2001, Cancer Res 61, 1964-9). On this selected tumor cell line, a Topoisomerase I mutation which changes the arginine 364 codon to histidine (R364H) was found. […]
Exponentially growing tumor cells were injected s.c. into nude athymic mice. […] Parameters of the animal rooms were assessed as follows: 22±2° C. temperature, 55±10% relative humidity, about 15-20 filtered air changes/hour and 12 hour circadian cycle of artificial light (7 a.m., 7 p.m.). At request, the environmental conditions were monitored and the data are retained in Animal Housing Archives. […]
Tumor growth was followed by biweekly measurements of tumor diameters with a Vernier caliper. Tumor volume (TV, mm^3) was calculated as: [length (mm)×width (mm)^2]/2, where the width and the length are the shortest and the longest diameters of each tumor, respectively. […]

[4] = target: T2, human DNA topoisomerase I mutant YCpGAL1htop1K720E (Homo sapiens, UniProt P11387, K720E); test: In vivo spot test, yeast transformed with human DNA topoisomerase I mutant K720E; format: cell-based; conditions: Saccharomyces cerevisiae EKY2, 2% galactose, drug 45 μM, 48-72 h at 30° C.
T2 sequence (P11387 1-765 K720E): T1 sequence (P11387 1-765) with K720E

[5] = test system: DU145RC1 camptothecin-resistant prostate carcinoma; test: Antitumor activity on DU145RC1 resistant tumor xenograft; format: in vivo, human; conditions: DU145 RC1 s.c. in nude athymic mice, q4d × 5
Description: as §1, §2, §3, §4

[6] = test system: A2780/ADR multidrug-resistant ovarian carcinoma; test: Antitumor activity on A2780/ADR resistant tumor xenograft; format: in vivo, human; conditions: A2780/ADR s.c. in nude athymic mice, q4d × 4
Description: as §1, §2, §3, §4

CC[C@@]1(O)C(=O)OCc2c1cc1n(c2=O)Cc2c-1nc1ccccc1c2/C=N/OC(C)(C)C [ST1481, 7-t-butoxyiminomethylcamptothecin]
growth of the yeasts transformed with the DNA topoisomerase I wild type [1]: inhibit the growth

CCC1(O)C(=O)OCc2c1cc1n(c2=O)Cc2c-1nc1ccccc1c2C=NOCCN1CCOCC1 (stereo not drawn) [ST1600, 7-[2-(4-morpholinyl)ethoxy]iminomethylcamptothecin]
growth of the yeasts transformed with the DNA topoisomerase I wild type [1]: inhibit the growth

CC[C@@]1(O)C(=O)OCc2c1cc1n(c2=O)Cc2c-1nc1ccccc1c2/C=N\OCCN [ST1968, 7-(2-amino)ethoxyiminomethylcamptothecin]
CR ([2]; 15 mg/kg): 8/8
LCK ([2]; 15 mg/kg): 6.3
TVI % ([2]; 15 mg/kg): 100%
CR ([2]; 30 mg/kg): 7/7
LCK ([2]; 30 mg/kg): >>6.3
TVI % ([2]; 30 mg/kg): 100%
LCK [3]: 0.65
TVI % [3]: 66%
growth of the transformed YCpGAL1htop1K720E mutant [4]: able to inhibit the growth
CR ([5]; 30 mg/kg): 0/8
LCK ([5]; 30 mg/kg): 1.3
TVI % ([5]; 30 mg/kg): 65%
CR ([6]; 15 mg/kg): 6/8
LCK ([6]; 15 mg/kg): 2.2
TVI % ([6]; 15 mg/kg): 99%
LCK ([6]; 30 mg/kg): 1.9
TVI % ([6]; 30 mg/kg): 100%
growth of the yeasts transformed with the DNA topoisomerase I wild type [1]: inhibit the growth

CCC1(O)C(=O)OCc2c1cc1n(c2=O)Cc2c-1nc1ccccc1c2C=NOCCN(C)C (stereo not drawn) [ST1969, 7-(2-dimethylamino)ethoxyiminomethylcamptothecin]
growth of the transformed YCpGAL1htop1K720E mutant [4]: able to inhibit the growth
growth of the yeasts transformed with the DNA topoisomerase I wild type [1]: inhibit the growth

CCC1(O)C(=O)OCc2c1cc1n(c2=O)Cc2c-1nc1ccccc1c2C=NOCc1ccc(N)cc1 (stereo not drawn) [ST1976, 7-(4-amino)benzyloxyiminomethylcamptothecin]
growth of the yeasts transformed with the DNA topoisomerase I wild type [1]: inhibit the growth

CC[C@@]1(O)C(=O)OCc2c1cc1n(c2=O)Cc2cc3ccccc3nc2-1 [camptothecin]
growth of the yeasts transformed with the DNA topoisomerase I wild type [1]: inhibit the growth

N.N.O=C([O-])C1(C(=O)[O-])CCC1.[Pt+2] [carboplatin]
CR ([2]; 25 mg/kg): 0/8
LCK ([2]; 25 mg/kg): 0.5
TVI % ([2]; 25 mg/kg): 26%
CR ([6]; 33.3 mg/kg): 0/7
LCK ([6]; 33.3 mg/kg): 0.6
TVI % ([6]; 33.3 mg/kg): 62%

CCc1c2c(nc3ccc(OC(=O)N4CCC(N5CCCCC5)CC4)cc13)-c1cc3c(c(=O)n1C2)COC(=O)[C@]3(O)CC [irinotecan]
CR ([5]; 60 mg/kg): 0/8
LCK ([5]; 60 mg/kg): 0.8
TVI % ([5]; 60 mg/kg): 45%

CC(=O)O[C@H]1C(=O)[C@@]2(C)[C@H]([C@H](OC(=O)c3ccccc3)[C@]3(O)C[C@H](OC(=O)[C@H](O)[C@@H](NC(=O)c4ccccc4)c4ccccc4)C(C)=C1C3(C)C)[C@]1(OC(C)=O)CO[C@@H]1C[C@@H]2O [paclitaxel]
CR ([2]; 15 mg/kg): 6/6
LCK ([2]; 15 mg/kg): 1.4
TVI % ([2]; 15 mg/kg): 94%
CR ([6]; 16 mg/kg): 0/8
LCK ([6]; 16 mg/kg): 0.1
TVI % ([6]; 16 mg/kg): 16%

CC[C@@]1(O)C(=O)OCc2c1cc1n(c2=O)Cc2cc3c(CN(C)C)c(O)ccc3nc2-1 [topotecan]
CR ([2]; 10 mg/kg): 1/8
LCK ([2]; 10 mg/kg): 1.2
TVI % ([2]; 10 mg/kg): 93%
CR ([6]; 10 mg/kg): 1/6
LCK ([6]; 10 mg/kg): 1.1
TVI % ([6]; 10 mg/kg): 85%
